Source: publication PMC10895676, “Antiviral Activity of Lipophilic Nucleoside Tetraphosphate Compounds” (Journal of Medicinal Chemistry, 2024)

Key:
[1] = Cytotoxicity, inhibition of CEM/TK– cell proliferation; assay type: cell-based; details: human, CEM/TK– cells (CD4+ T-cells), read-out: toxicity CC50
[2] = Hydrolysis in citrate-stabilized human plasma; assay type: in vitro ADME; details: 37 °C, read-out: t1/2 in citrate-stabilized human plasma (converted)
Description: Finally, the supernatant was divided into aliquots and frozen at −80 °C.
Two different samples, including 10 μL of water and 10 μL of 6.0 mM hydrolysis solution, were prepared in 2 mL Eppendorf vials. Next, 50 μL of human CEM cell extracts or 50 μL of human citrate plasma were added to the mixture, the reaction was started, and the mixture was incubated at 37 °C for different time periods. The reactions were stopped by the addition of 150 μL of MeOH. The resulting suspension was kept on ice for 5 min, followed by defrosting and centrifugation at 14,000 rpm (Heraeus, Biofuge Pico) for 22 min. The supernatants (80 or 60 μL) were directly injected into HPLC. The calculation of t1/2 was performed analogously to that for the chemical hydrolysis studies.

CCCCCCCCCCCCCCCCCCOP(=O)(OCCCC)OP(=O)(O)OP(=O)(O)OP(=O)(O)OC[C@@H]1C=C[C@H](n2cc(C)c(=O)[nH]c2=O)O1 (stereo partly shown) [4d, δ-(Alkyl-C4; alkyl-C18)-d4T4P]
CC50 [1]: 46.8 µM

CCCCCCCCCCCCCCCCCCP(=O)(OCCCC)OP(=O)(O)OP(=O)(O)OP(=O)(O)OC[C@@H]1C=C[C@H](n2cc(C)c(=O)[nH]c2=O)O1 (stereo partly shown) [5a, δ-(Alkyl-C4)-δ-C-(alkyl-C18)-d4T4P]
half-life at 0.86 mM [2]: > 1320 min | CC50 [1]: 49.8 µM

CCCCCCCCCCCCCCCCCCOP(=O)(O)OP(=O)(O)OP(=O)(O)OP(=O)(O)OC[C@@H]1C=C[C@H](n2cc(C)c(=O)[nH]c2=O)O1 [compound 20, δ-(Alkyl-C18)-d4T4P]
CC50 [1]: > 100 µM

CCCCCCCCCCCCCCCCCCP(=O)(O)OP(=O)(O)OP(=O)(O)OP(=O)(O)OC[C@@H]1C=C[C@H](n2cc(C)c(=O)[nH]c2=O)O1 [compound 24, δ-C-(Alkyl-C18)-d4T4P]
half-life at 0.86 mM [2]: > 1320 min | CC50 [1]: 40.1 µM

Cc1cn([C@H]2C=C[C@@H](COP(=O)(O)OP(=O)(O)OP(=O)(O)OP(=O)(O)O)O2)c(=O)[nH]c1=O [d4T4P, 2′,3′-didehydro-2′,3′-dideoxythymidine-5′-tetraphosphate]
CC50 [1]: > 100 µM
